Source: ChEMBL document CHEMBL4418912, “Methods of identifying antagonists of the hTAS2R46 bitter taste receptor” (2014)
The source made the active and inactive calls. The rule behind the calls is not given here.

Target: T1, Taste receptor type 2 member 38 (Homo sapiens) (UniProt P59533)
T1 sequence (whole entry): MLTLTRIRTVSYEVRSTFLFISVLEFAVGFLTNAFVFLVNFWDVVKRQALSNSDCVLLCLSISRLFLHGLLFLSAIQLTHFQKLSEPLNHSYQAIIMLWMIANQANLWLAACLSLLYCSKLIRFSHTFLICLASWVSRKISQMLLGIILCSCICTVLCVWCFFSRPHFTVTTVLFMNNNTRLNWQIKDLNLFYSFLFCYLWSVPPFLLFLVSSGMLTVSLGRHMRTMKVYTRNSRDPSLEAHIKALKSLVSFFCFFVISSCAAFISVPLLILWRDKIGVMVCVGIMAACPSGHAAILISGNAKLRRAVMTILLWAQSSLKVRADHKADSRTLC
Assay: Agonist activity at recombinant human N-terminal rat ST3 receptor-fused TAS2R38 expressed in HEK293T cells co-expressing Galpha16gust44 assessed as increase in intracellular calcium level at 100 uM by FLIPR assay
Assay type: functional, cell-based

For `C/C1=C\C[C@H](O)/C(C)=C/[C@H]2OC(=O)[C@@H](C)[C@@H]2CC1`, the Activity was “Active”.
